Measured values reported in ChEMBL document CHEMBL1201862, “PubChem BioAssay data set” (2004).
Calls of active or inactive are those of the source.

Assays:
[1] = molecular target: T1, Kappa-type opioid receptor (Homo sapiens, UniProt P41145); assay: KOR agonist analogs, arrestin-GFP redistribution, SAR follow-up, imaging, image-based, set 3 (AID 488833); assay type: functional
[2] = molecular target: Delta-type opioid receptor (Homo sapiens, UniProt P41143); assay: SAR Analysis of Agonists of the DOR Receptor using an Image-Based Assay - Set 3. [Related pubchem assays (depositor defined):AID1777, AID1786]; assay type: functional
Sequence of Delta-type opioid receptor (P41143 whole entry): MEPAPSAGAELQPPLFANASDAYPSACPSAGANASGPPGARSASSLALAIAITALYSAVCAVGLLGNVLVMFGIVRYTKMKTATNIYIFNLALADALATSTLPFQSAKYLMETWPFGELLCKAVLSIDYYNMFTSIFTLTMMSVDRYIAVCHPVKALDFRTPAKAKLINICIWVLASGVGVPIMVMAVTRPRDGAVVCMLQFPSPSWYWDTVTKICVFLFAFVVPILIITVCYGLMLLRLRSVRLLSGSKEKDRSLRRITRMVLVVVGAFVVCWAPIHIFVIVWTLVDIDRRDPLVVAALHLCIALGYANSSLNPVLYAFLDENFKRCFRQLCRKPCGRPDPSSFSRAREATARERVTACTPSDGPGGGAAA

[3] = molecular target: T1, Kappa-type opioid receptor; assay: SAR analysis of small molecule agonists of the kappa opioid receptor via a luminescent beta-arrestin assay - Set 3. [Related pubchem assays (depositor defined):AID1777, AID1785, AID1786, AID1966, AID2133, AID2136, AID2284, AID2500]; assay type: functional
[4] = molecular target: Mu-type opioid receptor (Homo sapiens, UniProt P35372); assay: SAR Analysis of Agonists of the MOR Receptor using an Image-Based Assay - Set 3. [Related pubchem assays (depositor defined):AID1777, AID1785, AID1786, AID1966, AID2133, AID2136, AID2284, AID2285, AID2352]; assay type: functional
Sequence of Mu-type opioid receptor (P35372 whole entry): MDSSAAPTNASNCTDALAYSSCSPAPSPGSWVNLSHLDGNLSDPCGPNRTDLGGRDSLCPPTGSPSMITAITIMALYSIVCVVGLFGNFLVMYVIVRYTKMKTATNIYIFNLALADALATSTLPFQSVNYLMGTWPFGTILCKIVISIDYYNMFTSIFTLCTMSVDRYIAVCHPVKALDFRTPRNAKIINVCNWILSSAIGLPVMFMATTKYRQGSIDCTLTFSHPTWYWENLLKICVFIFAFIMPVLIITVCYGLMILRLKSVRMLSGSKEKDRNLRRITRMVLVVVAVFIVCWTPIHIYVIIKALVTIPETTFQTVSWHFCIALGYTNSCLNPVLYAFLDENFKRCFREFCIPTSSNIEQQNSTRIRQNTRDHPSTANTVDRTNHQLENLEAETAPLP

[5] = molecular target: T2, Ubiquitin-conjugating enzyme E2 N (Homo sapiens, UniProt P61088); assay type: functional
T2 sequence (P61088 whole entry): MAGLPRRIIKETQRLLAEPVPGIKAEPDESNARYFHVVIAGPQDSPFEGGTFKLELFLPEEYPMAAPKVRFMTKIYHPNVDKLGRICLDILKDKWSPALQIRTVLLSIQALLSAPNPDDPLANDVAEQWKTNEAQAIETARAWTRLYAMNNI

[6] = molecular target: Bcl-2-related protein A1 (Mus musculus, UniProt Q07440); assay type: functional;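 note: confirmatory dose–response counterscreen on Bfl-1, used to check hits from a UBC13 polyubiquitin inhibitor campaign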
Sequence of Bcl-2-related protein A1 (Q07440 whole entry): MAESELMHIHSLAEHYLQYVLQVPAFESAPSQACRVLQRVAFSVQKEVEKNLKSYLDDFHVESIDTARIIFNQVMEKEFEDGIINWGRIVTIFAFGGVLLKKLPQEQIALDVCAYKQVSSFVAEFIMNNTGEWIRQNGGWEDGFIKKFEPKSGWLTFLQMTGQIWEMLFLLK

[7] = human group III sPLA2 inhibitors, dose response, biochemical, QFRET, IC50 (AID 743457);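 note: green fluorescence rise as the enzyme cleaves BODIPY PC-A2 in liposomes; potency for inhibition of the enzyme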
[8] = molecular target: T2, Ubiquitin-conjugating enzyme E2 N; assay type: functional; remark: listed apart in the source
[9] = test system: Escherichia coli; assay: microbe, parasite or virus in culture
[10] = molecular target: Exodeoxyribonuclease V (Escherichia coli (strain K12), UniProt P04993+P07648+P08394); assay: E. coli RecBCD inhibitors, dose response, counter-screen for AddAB inhibitor project, absorbance, V66 E. coli, mutant T4 phage (AID 492957); assay type: functional, cell-based, Escherichia coli str. K-12 substr. MG1655
Sequence of Exodeoxyribonuclease V (P04993 whole entry): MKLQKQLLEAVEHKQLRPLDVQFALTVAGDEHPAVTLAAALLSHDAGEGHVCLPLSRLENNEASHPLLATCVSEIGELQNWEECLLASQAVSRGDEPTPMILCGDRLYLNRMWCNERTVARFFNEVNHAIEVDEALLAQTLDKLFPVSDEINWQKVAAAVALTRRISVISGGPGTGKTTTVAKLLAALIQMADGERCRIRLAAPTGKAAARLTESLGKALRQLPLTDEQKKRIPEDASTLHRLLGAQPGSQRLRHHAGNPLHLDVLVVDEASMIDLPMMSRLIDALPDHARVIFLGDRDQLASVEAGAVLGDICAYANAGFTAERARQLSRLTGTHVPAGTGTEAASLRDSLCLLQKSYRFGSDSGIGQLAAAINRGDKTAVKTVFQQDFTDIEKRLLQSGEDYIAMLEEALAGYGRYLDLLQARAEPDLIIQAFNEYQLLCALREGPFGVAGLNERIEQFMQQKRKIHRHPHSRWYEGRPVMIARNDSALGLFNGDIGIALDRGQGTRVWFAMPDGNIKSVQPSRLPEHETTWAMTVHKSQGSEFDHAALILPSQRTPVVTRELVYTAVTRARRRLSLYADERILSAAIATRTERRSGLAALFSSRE
Sequence of Exodeoxyribonuclease V (P07648 whole entry): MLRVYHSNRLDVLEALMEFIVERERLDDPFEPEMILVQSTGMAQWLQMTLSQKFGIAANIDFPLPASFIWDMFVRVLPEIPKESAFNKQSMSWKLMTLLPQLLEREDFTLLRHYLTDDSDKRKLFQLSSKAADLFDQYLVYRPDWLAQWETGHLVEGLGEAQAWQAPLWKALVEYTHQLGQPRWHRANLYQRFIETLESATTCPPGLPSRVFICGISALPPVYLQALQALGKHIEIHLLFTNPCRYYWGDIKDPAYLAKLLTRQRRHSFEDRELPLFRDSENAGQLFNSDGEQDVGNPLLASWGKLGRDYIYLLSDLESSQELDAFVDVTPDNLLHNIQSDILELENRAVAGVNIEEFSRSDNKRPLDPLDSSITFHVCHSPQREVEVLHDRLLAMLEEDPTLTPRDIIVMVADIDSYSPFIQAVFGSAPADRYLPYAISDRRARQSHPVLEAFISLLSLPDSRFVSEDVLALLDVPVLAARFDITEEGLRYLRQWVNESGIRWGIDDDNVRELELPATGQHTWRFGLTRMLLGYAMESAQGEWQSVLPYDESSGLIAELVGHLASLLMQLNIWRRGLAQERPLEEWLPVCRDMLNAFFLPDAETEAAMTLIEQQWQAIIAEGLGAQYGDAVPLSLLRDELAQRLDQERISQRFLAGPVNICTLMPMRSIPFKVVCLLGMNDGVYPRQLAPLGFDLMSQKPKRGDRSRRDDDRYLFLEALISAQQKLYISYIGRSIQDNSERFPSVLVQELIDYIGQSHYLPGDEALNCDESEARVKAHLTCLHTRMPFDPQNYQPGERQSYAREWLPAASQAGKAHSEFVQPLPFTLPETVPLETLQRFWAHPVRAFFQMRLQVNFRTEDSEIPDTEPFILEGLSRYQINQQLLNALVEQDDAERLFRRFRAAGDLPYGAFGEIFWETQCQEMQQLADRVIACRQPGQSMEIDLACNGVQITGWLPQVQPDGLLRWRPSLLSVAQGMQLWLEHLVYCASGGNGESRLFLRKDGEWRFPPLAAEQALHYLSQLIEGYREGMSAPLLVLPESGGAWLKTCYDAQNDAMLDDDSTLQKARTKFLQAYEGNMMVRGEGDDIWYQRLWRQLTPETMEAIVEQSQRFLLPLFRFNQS
Sequence of Exodeoxyribonuclease V (P08394 whole entry): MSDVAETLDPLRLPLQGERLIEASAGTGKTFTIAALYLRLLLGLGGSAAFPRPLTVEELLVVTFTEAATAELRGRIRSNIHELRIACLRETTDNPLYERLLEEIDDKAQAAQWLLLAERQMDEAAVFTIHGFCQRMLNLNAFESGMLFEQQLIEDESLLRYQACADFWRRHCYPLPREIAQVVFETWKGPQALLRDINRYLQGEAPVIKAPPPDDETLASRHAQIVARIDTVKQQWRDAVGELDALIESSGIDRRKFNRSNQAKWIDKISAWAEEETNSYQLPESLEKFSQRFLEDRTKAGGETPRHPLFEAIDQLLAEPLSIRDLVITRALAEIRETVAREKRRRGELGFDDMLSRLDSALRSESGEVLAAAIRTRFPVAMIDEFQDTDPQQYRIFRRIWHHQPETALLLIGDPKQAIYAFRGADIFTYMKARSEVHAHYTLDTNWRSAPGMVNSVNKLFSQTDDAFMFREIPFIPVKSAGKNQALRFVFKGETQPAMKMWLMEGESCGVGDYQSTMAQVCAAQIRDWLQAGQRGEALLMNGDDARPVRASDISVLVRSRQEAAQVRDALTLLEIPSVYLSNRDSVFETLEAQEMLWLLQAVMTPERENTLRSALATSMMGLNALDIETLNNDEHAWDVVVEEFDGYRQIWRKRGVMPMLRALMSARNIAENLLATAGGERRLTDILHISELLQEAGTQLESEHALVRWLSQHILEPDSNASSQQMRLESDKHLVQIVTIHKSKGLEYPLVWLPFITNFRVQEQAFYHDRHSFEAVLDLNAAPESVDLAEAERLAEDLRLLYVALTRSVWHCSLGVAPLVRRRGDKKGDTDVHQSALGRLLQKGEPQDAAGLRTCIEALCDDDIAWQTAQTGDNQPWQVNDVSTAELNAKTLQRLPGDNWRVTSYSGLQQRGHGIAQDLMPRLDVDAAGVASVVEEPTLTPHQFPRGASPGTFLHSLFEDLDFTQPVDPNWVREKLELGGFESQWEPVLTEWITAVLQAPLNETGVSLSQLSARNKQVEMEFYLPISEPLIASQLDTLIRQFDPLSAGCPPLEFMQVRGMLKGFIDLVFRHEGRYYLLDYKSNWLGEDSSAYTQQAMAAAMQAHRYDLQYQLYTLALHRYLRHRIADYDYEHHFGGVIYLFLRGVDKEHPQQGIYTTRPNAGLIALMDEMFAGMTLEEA

[11] = Counterscreen for AddAB inhibitors: absorbance-based bacterial cell-based high throughput dose response assay for inhibitors of bacterial viability. [Related pubchem assays (depositor defined):AID435030, AID449728, AID449731, AID488942, AID488955, AID488956]; assay type: functional
[12] = molecular target: T3, DNA repair protein RAD52 homolog (Homo sapiens, UniProt P43351); assay type: functional, biochemical
T3 sequence (P43351 whole entry): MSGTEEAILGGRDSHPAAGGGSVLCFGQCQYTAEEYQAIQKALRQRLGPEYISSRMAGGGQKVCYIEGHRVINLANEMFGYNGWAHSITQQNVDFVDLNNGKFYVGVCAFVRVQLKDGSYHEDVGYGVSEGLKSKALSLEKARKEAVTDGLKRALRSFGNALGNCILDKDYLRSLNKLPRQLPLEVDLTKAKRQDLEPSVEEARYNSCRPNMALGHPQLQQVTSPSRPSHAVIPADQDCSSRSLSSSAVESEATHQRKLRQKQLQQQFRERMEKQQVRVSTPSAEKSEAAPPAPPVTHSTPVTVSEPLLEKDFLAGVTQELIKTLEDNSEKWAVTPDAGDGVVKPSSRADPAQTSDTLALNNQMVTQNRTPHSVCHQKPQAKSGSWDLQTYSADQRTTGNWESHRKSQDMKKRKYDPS

[13] = molecular target: T4, Tyrosine-protein phosphatase non-receptor type 22 (Homo sapiens, UniProt Q9Y2R2); assay type: functional
T4 sequence (Q9Y2R2 whole entry): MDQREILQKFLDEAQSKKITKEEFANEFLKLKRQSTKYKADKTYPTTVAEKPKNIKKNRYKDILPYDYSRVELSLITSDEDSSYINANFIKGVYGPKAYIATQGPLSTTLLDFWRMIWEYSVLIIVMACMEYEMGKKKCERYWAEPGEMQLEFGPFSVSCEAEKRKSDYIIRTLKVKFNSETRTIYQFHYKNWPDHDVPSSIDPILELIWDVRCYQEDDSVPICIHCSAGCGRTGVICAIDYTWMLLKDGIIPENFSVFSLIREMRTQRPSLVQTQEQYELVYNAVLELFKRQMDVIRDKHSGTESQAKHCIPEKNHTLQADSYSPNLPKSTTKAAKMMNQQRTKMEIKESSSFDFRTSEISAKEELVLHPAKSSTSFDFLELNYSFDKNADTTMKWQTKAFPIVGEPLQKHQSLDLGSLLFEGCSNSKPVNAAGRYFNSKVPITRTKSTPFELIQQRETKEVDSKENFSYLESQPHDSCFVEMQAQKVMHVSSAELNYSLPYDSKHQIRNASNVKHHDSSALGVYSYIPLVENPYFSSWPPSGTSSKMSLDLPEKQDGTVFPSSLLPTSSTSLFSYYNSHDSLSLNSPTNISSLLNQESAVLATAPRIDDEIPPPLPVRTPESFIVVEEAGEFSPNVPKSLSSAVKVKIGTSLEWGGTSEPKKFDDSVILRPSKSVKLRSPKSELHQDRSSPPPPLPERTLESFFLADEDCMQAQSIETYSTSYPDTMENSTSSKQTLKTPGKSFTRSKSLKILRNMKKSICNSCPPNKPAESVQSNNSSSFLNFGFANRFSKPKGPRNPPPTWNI

[14] = Jurkat T cell cytotoxicity, dose response, cytotoxicity control for P. falciparum gametocyte viability project, luminescence (AID 1117277); assay type: functional, cell-based;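 note: potency reflects loss of cellular ATP meaning fewer viable cells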
[15] = molecular target: T4, Tyrosine-protein phosphatase non-receptor type 22; assay type: functional; remark: listed apart in the source
[16] = P. falciparum late gametocyte killing, dose response, luminescence (AID 1117278); assay type: functional, cell-based;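 note: gametocytes exposed to compound for 24 hours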
[17] = molecular target: T5, Tyrosine-protein phosphatase non-receptor type 7 (Homo sapiens, UniProt P35236); assay type: functional
T5 sequence (P35236 whole entry): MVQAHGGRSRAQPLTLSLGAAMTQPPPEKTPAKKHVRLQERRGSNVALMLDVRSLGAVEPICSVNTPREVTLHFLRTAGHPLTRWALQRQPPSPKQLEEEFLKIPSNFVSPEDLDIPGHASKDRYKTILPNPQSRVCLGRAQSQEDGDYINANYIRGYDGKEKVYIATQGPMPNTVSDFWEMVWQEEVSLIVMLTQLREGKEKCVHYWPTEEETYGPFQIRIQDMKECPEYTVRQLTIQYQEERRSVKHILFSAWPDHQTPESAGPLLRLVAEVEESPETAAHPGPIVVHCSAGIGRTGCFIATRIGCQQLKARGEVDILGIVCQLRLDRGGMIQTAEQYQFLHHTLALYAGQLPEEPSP

[18] = test system: Escherichia coli; assay: microbe, parasite or virus in culture; remark: listed apart in the source

T1 sequence (P41145 whole entry): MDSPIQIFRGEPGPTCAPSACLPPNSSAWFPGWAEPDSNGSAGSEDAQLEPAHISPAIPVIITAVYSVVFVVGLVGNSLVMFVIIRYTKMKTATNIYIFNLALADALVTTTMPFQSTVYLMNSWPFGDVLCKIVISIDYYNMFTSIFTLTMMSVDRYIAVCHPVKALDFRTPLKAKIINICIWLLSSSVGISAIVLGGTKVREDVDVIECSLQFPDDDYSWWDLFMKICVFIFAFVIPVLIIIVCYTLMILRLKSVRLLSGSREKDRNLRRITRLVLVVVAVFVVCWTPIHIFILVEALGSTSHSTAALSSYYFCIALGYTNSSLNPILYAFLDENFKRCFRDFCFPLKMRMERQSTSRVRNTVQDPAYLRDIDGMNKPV

With Fc1ccc(CSc2nnc(-c3ccccn3)n2Cc2ccco2)c(C(F)(F)F)c1 the EC50 [1] was 5.39 µM (active), the EC50 [2] was > 64 µM (inactive) and the EC50 [3] was 8.27 µM (active). The EC50 [4] was > 32 µM (inactive).
For Cc1cc(C(=O)NNC(=S)NC(=O)/C=C/c2ccccc2Cl)[nH]n1, the IC50 [5] was 6.96 µM (active), the IC50 [6] was > 20 µM (inactive) and the IC50 [7] was > 122 µM (inactive). The IC50 [8] was 5.24 µM (active).
In the case of O=C(O)CN1C(=O)CC(Cc2ccc(Cl)cc2)C1=O (stereo not given), the AC50 [9] was 106 µM (active).
With O=C(OCC(=O)c1cccs1)c1ccc([N+](=O)[O-])o1 the IC50 [10] was > 119 µM (inactive) and the IC50 [11] was 92.6 µM (inactive).
For C[C@]12CC[C@H](O)C[C@@H]1CC[C@@H]1[C@@H]2CC[C@]2(C)[C@@H](OC(=O)[C@H](N)CCCCN)CC[C@@H]12, the IC50 [6] was > 20 µM (inactive), the AC50 [12] was 1.27 µM (active) and the IC50 [8] was 11.8 µM (active).
In the case of COc1ccc(C(C#N)(CCC#N)CCC#N)cc1OC, the IC50 [13] was > 79.4 µM (inactive), the IC50 [14] was > 83.3 µM (inactive) and the IC50 [15] was > 79.4 µM (inactive). The IC50 [16] was > 109 µM (inactive) and the IC50 [17] was > 79.4 µM (inactive).
For C[C@H](NS(=O)(=O)c1ccc(Cl)c(Cl)c1)C(=O)OCc1cc(=O)n2cc(Br)ccc2n1, the AC50 [18] was 67.4 µM (active).
